Calls of active or inactive are those of the source. The calls are words filed in the database; no cut-off is given here.
Experiments:
[1] = Antiproliferative activity against human NAMALWA cells assessed as inhibition of cell proliferation incubated for 72 hrs by conventional ATP quantification method; assay type: functional, cell-based; settings: NAMALVA
A549 [2] = assay: (§1) Antiproliferative activity against human A549 cells assessed as inhibition of cell proliferation incubated for 72 hrs by conventional ATP quantification method; assay type: functional, cell-based; settings: A549, 72 h
HCT-116 [3] = assay: (§2) Antiproliferative activity against human HCT116 cells assessed as inhibition of cell proliferation incubated for 72 hrs by conventional ATP quantification method; assay type: functional, cell-based; settings: HCT-116, 72 h
[4] = Antiproliferative activity against human WM266.4 cells assessed as inhibition of cell proliferation incubated for 72 hrs by conventional ATP quantification method; assay type: functional, cell-based; settings: WM 266-4, 72 h
A-375 [5] = assay: Antiproliferative activity against human A375 cells assessed as inhibition of cell proliferation incubated for 72 hrs by conventional ATP quantification method; assay type: functional, cell-based; settings: A-375, 72 h
A-375 [6] = assay: Toxicity against human A375 cells assessed as reduction in cell viability at 10 uM; assay type: cell-based; settings: a-375, 10 µM
[7] = Oral bioavailability in mouse at 2.5 mg/kg by tandem HPLC-mass spectrometry; assay type: ADME, organism-based; settings: in vivo
HT-29 [8] = assay: Cytotoxicity against human HT-29 cells incubated for 72 hrs under normoxic conditions by MTS assay; assay type: functional, cell-based
Mus musculus [9] = assay: Toxicity in Swiss mouse xenografted with human A549 cells assessed as induction of renal toxicity at 2.5 and 5 mg/kg, ip dosed every day for 5 consecutive days during 2 weeks (q1d5 x 2 schedule); assay type: organism-based; settings: in vivo, 336 h
MDA-MB-231 [10] = assay: Antiproliferative activity against human MDA-MB-231 cells assessed as inhibition of cell proliferation incubated for 72 hrs by conventional ATP quantification method; assay type: functional, cell-based; settings: MDA-MB-231, 72 h
[11] = Antiproliferative activity against human BxPC3 cells assessed as inhibition of cell proliferation incubated for 72 hrs by conventional ATP quantification method; assay type: functional, cell-based; settings: BXPC-3, 72 h
Mus musculus [12] = assay: Toxicity in Swiss mouse xenografted with human A549 cells assessed as induction of hepatic toxicity at 2.5 and 5 mg/kg, ip dosed every day for 5 consecutive days during 2 weeks (q1d5 x 2 schedule); assay type: organism-based; settings: in vivo, 336 h
[13] = Cmax in mouse at 2.5 mg/kg, po by tandem HPLC-mass spectrometry; assay type: ADME, organism-based; design: dose 2.5 mg/kg, route oral; settings: in vivo
[14] = Tmax in mouse at 1.5 mg/kg, ip by tandem HPLC-mass spectrometry; assay type: ADME, organism-based; settings: in vivo
[15] = Antiproliferative activity against human COLO205 cells assessed as inhibition of cell proliferation incubated for 72 hrs by conventional ATP quantification method; assay type: functional, cell-based; settings: COLO 205, 72 h
KM12 = assay: Antiproliferative activity against human KM12 cells assessed as inhibition of cell proliferation incubated for 72 hrs by conventional ATP quantification method; assay type: functional, cell-based; settings: KM12, 72 h
[16] = AUClast in mouse at 0.5 mg/kg, iv by tandem HPLC-mass spectrometry; assay type: ADME, organism-based; design: dose 0.5 mg/kg, route intravenous, time 0 - last; settings: in vivo
A-375 [17] = assay: Inhibition of cell invasion of human A375 cells at 10 uM by Boyden chamber assay; assay type: functional, cell-based
NCI-H460 = assay: Antiproliferative activity against human NCI-H460 cells assessed as inhibition of cell proliferation incubated for 72 hrs by conventional ATP quantification method; assay type: functional, cell-based; settings: NCI-H460, 72 h
HL-60 = assay: Antiproliferative activity against human HL60 cells assessed as inhibition of cell proliferation incubated for 72 hrs by conventional ATP quantification method; assay type: functional, cell-based; settings: HL-60, 72 h
A-375 [18] = assay: Antiproliferative activity against human A375 cells assessed as inhibition of cell proliferation incubated for 24 hrs by conventional ATP quantification method; assay type: functional, cell-based; settings: A-375, 24 h
DU-145 = assay: Antiproliferative activity against human DU145 cells assessed as inhibition of cell proliferation incubated for 72 hrs by conventional ATP quantification method; assay type: functional, cell-based; settings: DU-145, 72 h
TK-10 = assay: Antiproliferative activity against human TK10 cells assessed as inhibition of cell proliferation incubated for 72 hrs by conventional ATP quantification method; assay type: functional, cell-based; settings: TK-10, 72 h
PANC-1 = assay: Induction of ROS generation in human PANC1 cells incubated for 1 hr by DCFH-DA dye based assay; assay type: functional, cell-based
HOP-62 = assay: Antiproliferative activity against human HOP62 cells assessed as inhibition of cell proliferation incubated for 72 hrs by conventional ATP quantification method; assay type: functional, cell-based; settings: HOP-62, 72 h
HT-29 [19] = assay: Cytotoxicity against human HT-29 cells incubated for 72 hrs under hypoxic conditions by MTS assay; assay type: functional, cell-based
A-375 [20] = assay: Antiproliferative activity against human A375 cells assessed as inhibition of cell proliferation incubated for 24 hrs by conventional ATP quantification method relative to untreated control; assay type: functional
[21] = Half life in mouse at 1.5 mg/kg, ip by tandem HPLC-mass spectrometry; assay type: ADME, organism-based; settings: in vivo
A-375 [22] = assay: Toxicity against human A375 cells assessed as membrane integrity by measuring LDH release incubated for 24 hrs; assay type: cell-based; settings: a-375, 24 h
A549 [23] = assay: as §1; assay type: functional, cell-based; settings: A549, 72 h; remark: listed apart in the source
[24] = Half life in mouse at 2.5 mg/kg, po by tandem HPLC-mass spectrometry; assay type: ADME, organism-based; settings: in vivo
T47D = assay: Antiproliferative activity against human T47D cells assessed as inhibition of cell proliferation incubated for 72 hrs by conventional ATP quantification method; assay type: functional, cell-based
[25] = Toxicity in Swiss mouse xenografted with human A549 cells dosed intraperitoneally every day for 5 consecutive days during 2 weeks (q1d5 x 2 schedule); assay type: organism-based; settings: in vivo, ip
[26] = Antiproliferative activity against human KG1 cells assessed as inhibition of cell proliferation incubated for 72 hrs by conventional ATP quantification method; assay type: functional, cell-based; settings: KG-1, 72 h
A549 [27] = assay: Antitumor activity against human A549 cells xenografted in Swiss mouse aggressive tumor model assessed as effect on rate of tumor growth at 1 mg/kg, ip dosed every day for 5 consecutive days during 2 weeks (q1d5 x 2 schedule); assay type: functional, organism-based
A549 [28] = assay: Antitumor activity against human A549 cells xenografted in Swiss mouse assessed as effect on median tumor volume at 1 mg/kg, ip dosed every day for 5 consecutive days during 2 weeks (q1d5 x 2 schedule); assay type: functional, organism-based
SK-OV-3 = assay: Antiproliferative activity against human SKOV3 cells assessed as inhibition of cell proliferation incubated for 72 hrs by conventional ATP quantification method; assay type: functional, cell-based; settings: SK-OV-3, 72 h
Mus musculus [29] = assay: Toxicity in Swiss mouse xenografted with human A549 cells assessed as induction of body weight loss at 2.5 mg/kg, ip dosed every day for 4 consecutive days during 2 weeks (q1d4 x 2 schedule); assay type: organism-based; settings: in vivo, 336 h
Mus musculus [30] = assay: Toxicity in Swiss mouse xenografted with human A549 cells assessed as induction of icterus at 2.5 mg/kg, ip dosed every day for 4 consecutive days during 2 weeks (q1d4 x 2 schedule); assay type: organism-based; settings: in vivo, 336 h
[31] = Tmax in mouse at 2.5 mg/kg, po by tandem HPLC-mass spectrometry; assay type: ADME, organism-based; settings: in vivo
[32] = Half life in mouse at 0.5 mg/kg, iv by tandem HPLC-mass spectrometry; assay type: ADME, organism-based; settings: in vivo
MDA-MB-231 [33] = assay: Cytotoxicity against human MDA-MB-231 cells incubated for 72 hrs under normoxic conditions by MTS assay; assay type: functional, cell-based
OVCAR-3 = assay: Antiproliferative activity against human OVCAR3 cells assessed as inhibition of cell proliferation incubated for 72 hrs by conventional ATP quantification method; assay type: functional, cell-based; settings: OVCAR-3, 72 h
[34] = AUClast in mouse at 1.5 mg/kg, ip by tandem HPLC-mass spectrometry; assay type: ADME, organism-based; design: dose 1.5 mg/kg, route intraperitoneal, time 0 - last; settings: in vivo
[35] = Initial plasma concentration in mouse at 0.5 mg/kg, iv by tandem HPLC-mass spectrometry; assay type: ADME, organism-based
HCT-116 [36] = assay: as §2; assay type: functional, cell-based; settings: HCT-116, 72 h; remark: listed apart in the source
[37] = AUClast in mouse at 2.5 mg/kg, po by tandem HPLC-mass spectrometry; assay type: ADME, organism-based; design: dose 2.5 mg/kg, route oral, time 0 - last; settings: in vivo
[38] = Cmax in mouse at 1.5 mg/kg, ip by tandem HPLC-mass spectrometry; assay type: ADME, organism-based; design: dose 1.5 mg/kg, route intraperitoneal; settings: in vivo
A549 [39] = assay: Antitumor activity against human A549 cells xenografted in Swiss mouse assessed as reduction of subcutaneous tumor growth at 1 mg/kg, ip dosed every day for 5 consecutive days during 2 weeks (q1d5 x 2 schedule); assay type: functional, organism-based
MDA-MB-231 [40] = assay: Cytotoxicity against human MDA-MB-231 cells incubated for 72 hrs under hypoxic conditions by MTS assay; assay type: functional, cell-based

CNC(=O)C1=C[C@@H]2[C@@H](C(C)C)CC[C@@]3(CO3)[C@H]2C(=O)OC1
IC50 [1]: 1280 nM | IC50 (A549 [2]): 5540 nM | IC50 (HCT-116 [3]): 7100 nM | IC50 [4]: 5900 nM | IC50 (A-375 [5]): 4150 nM

CC(C)[C@H]1CC[C@@](O)(CCl)[C@H]2C(=O)OCC(C(=O)O)=C[C@H]12 [HEPTELIDIC ACID CHLOROHYDRIN]
IC50 [1]: 320 nM | IC50 (A549 [2]): 550 nM | IC50 (HCT-116 [3]): 220 nM | IC50 [4]: 550 nM | IC50 (A-375 [5]): 1310 nM

CC(C)[C@H]1CC[C@@](O)(CCl)[C@H]2C(=O)OCC(C(=O)OCc3ccc(-c4ccccc4)o3)=C[C@H]12
IC50 [1]: 1110 nM | IC50 (A549 [2]): 1720 nM | IC50 (HCT-116 [3]): 610 nM | IC50 [4]: 2910 nM | IC50 (A-375 [5]): 4000 nM

C=C(C(=O)O)C1OC(=O)[C@H]2[C@H]1[C@@H](C(C)C)CC[C@@]2(O)CI (stereo partly specified)
IC50 [1]: > 10000 nM | IC50 (A549 [2]): > 10000 nM | IC50 (HCT-116 [3]): > 10000 nM | IC50 [4]: > 10000 nM | IC50 (A-375 [5]): > 10000 nM

CC(C)[C@H]1CC[C@@]2(CO2)[C@H]2C(=O)OCC(C(=O)O)=C[C@H]12
Activity (A-375 [6]): 81% | bioavailability [7]: 17% | Activity (HT-29 [8]): Active | Activity (Mus musculus [9]): Toxic | IC50 (MDA-MB-231 [10]): 450 nM | IC50 [11]: 760 nM | Activity (Mus musculus [12]): Toxic | Cmax [13]: 17 ng/mL | Tmax [14]: 15 min | IC50 [15]: 630 nM | IC50 (KM12): 410 nM | AUC(0-t) [16]: 10.4 ng·h/mL | inhibition (A-375 [17]): inactive | IC50 (NCI-H460): 490 nM | IC50 (HL-60): 760 nM | IC50 (A-375 [18]): 1260 nM | IC50 (DU-145): 890 nM | IC50 (TK-10): 660 nM | Activity (PANC-1): inactive | IC50 (HOP-62): 510 nM | Activity (HT-29 [19]): Active | IC50 [1]: 302 nM | inhibition (INH) (A-375 [20]): 90% | half-life [21]: 6 min | Activity (A-375 [22]): 8% | IC50 (A549 [2]): 458 nM | IC50 (A549 [23]): 990 nM | half-life [24]: 30 min | IC50 (T47D): 210 nM | MTD at 336 h [25]: 1 mg/kg | IC50 [26]: 400 nM | Activity (A549 [27]): inactive | Activity (A549 [28]): inactive | IC50 (SK-OV-3): 340 nM | Activity (Mus musculus [29]): > 15% | IC50 (HCT-116 [3]): 210 nM | Activity (Mus musculus [30]): Toxic | Tmax [31]: 15 min | half-life [32]: 2.4 min | IC50 [4]: 509 nM | Activity (MDA-MB-231 [33]): Active | IC50 (OVCAR-3): 690 nM | AUC(0-t) [34]: 78.7 ng·h/mL | C0 [35]: 180 ng/mL | IC50 (HCT-116 [36]): 930 nM | AUC(0-t) [37]: 8.6 ng·h/mL | Cmax [38]: 249 ng/mL | Activity (A549 [39]): inactive | Activity (MDA-MB-231 [40]): Active | IC50 (A-375 [5]): 1340 nM

BLEOMYCIN
Activity (PANC-1): Active

CC(C)[C@H]1CC[C@@]2(CO2)[C@H]2C(=O)OCC(C(=O)OCc3ccc(-c4ccc([N+](=O)[O-])cc4)o3)=C[C@H]12
IC50 [1]: 1190 nM | IC50 (A549 [2]): 450 nM | IC50 (HCT-116 [3]): 620 nM | IC50 [4]: 3600 nM | IC50 (A-375 [5]): 1640 nM
